Target: T1, FRK (PTK5) (Homo sapiens, UniProt P42685)
T1 construct: purchased Thermo Fisher Scientific (Life Technologies) SelectScreen
Assay: SelectScreen Z'LYTE
Type: biochemical
Method in brief: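 SelectScreen broad panel; activity (Z'LYTE, Adapta) plus binding formats. ATP: Km app for CSF1R Z'LYTE; 10 for CAMK1 Adapta. Readout = % per kinase.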

T1 sequence (P42685 whole entry): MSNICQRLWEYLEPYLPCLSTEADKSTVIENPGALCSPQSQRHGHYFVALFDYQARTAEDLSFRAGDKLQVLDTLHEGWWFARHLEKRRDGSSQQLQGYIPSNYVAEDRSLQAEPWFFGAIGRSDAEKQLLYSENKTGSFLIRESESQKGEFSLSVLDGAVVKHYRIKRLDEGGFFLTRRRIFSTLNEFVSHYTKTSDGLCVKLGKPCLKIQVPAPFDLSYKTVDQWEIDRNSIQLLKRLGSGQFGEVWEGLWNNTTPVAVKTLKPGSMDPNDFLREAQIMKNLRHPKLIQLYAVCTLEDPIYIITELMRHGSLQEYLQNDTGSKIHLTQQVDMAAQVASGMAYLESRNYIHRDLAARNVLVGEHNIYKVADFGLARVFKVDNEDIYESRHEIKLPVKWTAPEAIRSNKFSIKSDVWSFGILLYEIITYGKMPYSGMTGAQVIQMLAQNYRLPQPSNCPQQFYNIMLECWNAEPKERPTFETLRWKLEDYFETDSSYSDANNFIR

CN(C(=O)CN1CCOCC1)c1ccc2sc3c(-c4cccc5c(=O)cc(N6CC7CCC(C6)O7)oc45)cccc3c2c1 [NU5455]
inhibition at 1 µM: 3.4%

From paper PMC6934184, “Selective DNA-PKcs inhibition extends the therapeutic index of localized radiotherapy and chemotherapy” (The Journal of Clinical Investigation, 2019)
